According to US20230041271A1, “Mitochondria-Targeted Polypeptide, Preparation Method thereof, and Use thereof” (Shenzhen Campus of Sun Yat-sen University, priority 2021, published 2023):
Square brackets hold non-standard residues; d marks the D form. Peptide text beside a SMILES is read from it. * marks the point of attachment. X2 = COc1cccc2c1C(=O)c1c(O)c3c(c(O)c1C2=O)C[C@@](O)(C(=O)CO)C[C@@H]3O[C@H]1C[C@H](NC(=O)OCCSSCCOC(=O)*)[C@H](O)[C@H](C)O1; 2Nal = N[C@@H](Cc1ccc2ccccc2c1)C(=O)O; d2Nal = N[C@H](Cc1ccc2ccccc2c1)C(=O)O; X1 = O=C1NC2CS[C@@H](CCCCC(=O)*)C2N1

Columns and labels:
[1] = system: mitochondria of HeLa cells; test: Mitochondrial co-localization confocal imaging with MitoTracker Deep Red; format: cell-based; details: for co-localization coefficient with the commercial mitochondrial dye (MitoTracker Deep Red): HeLa cells, confocal imaging, 50 nM MitoTracker Deep Red
Method: The synthesized mitochondria-targeted fluorescent probes were analyzed by confocal imaging to detect the effect of the arginine number on the mitochondrial localization thereof.
Experimental method: Solid powders of mitochondria-targeted fluorescent probes 8-12 synthesized in Example 3 were dissolved in DMSO to prepare 2 mM test mother solutions, and HeLa cells were cultured in a culture medium (DMEM: FBS: penicillin-streptomycin dual antibody=9:1:0.1). The cells were inoculated in an 8-well imaging dish and cultured in a cell incubator containing 5% CO2 at 37° C. until the cell density reached 60%. After the culture medium was removed, the cells were incubated with the target compound for a specified time. The culture medium was then removed, and wash with PBS was conducted three times. Thereafter, 50 nM commercial mitochondrial probe MitoTracker Deep Red (50 nM) was further added to the culture dish for 15 minutes of continuous incubation. After the culture medium was removed, wash with PBS was conducted three times. Imaging on confocal microscope was then carried out. Blue channel tracker 1 was set, with the excitation wavelength being 405 nm and the emission band being 420-490 nm, and this channel was used to receive fluorescence emitted by the mitochondria-targeted peptide. Red channel tracker 2 was set, with the excitation wavelength being 640 nm and the emission band being 655-755 nm, and this channel was used to receive fluorescence emitted by MitoTracker Deep Red, a commercial mitochondrial dye. In addition, in a cell imaging experiment, green channel tracker 3 was set, with the excitation wavelength being 560 nm and the emission band being 580-620 nm, and this channel was used to receive fluorescence emitted by compound 13. Green channel tracker 4 was set, with the excitation wavelength being 488 nm and the emission band being 500-600 nm, and this channel was used to receive fluorescence emitted by compound 14.

[2] = system: Hela cells; test: Drug release test of prodrug 17 in cells (fluorescence imaging); format: cell-based; details: for localization in the cells: HeLa cells
Method: Hela cells were cultured in an 8-well imaging dish and then treated with prodrug 17 (1 μM) for a certain time (1 h, 2 h, 3 h and 5 h). After the culture medium was removed, the cells were washed with PBS, a fresh culture medium was used for replacement, and the treated cells were then photographed by a fluorescence microscope. In addition, the cells were directly co-incubated with compound 17 (1 μM) for 1 h and then incubated with exogenous GSH (2 mM) for another 1 h (totally 2 h of incubation with compound 17); the cells were pretreated with the GSH inhibitor BSO (5 mM) for 24 h and then incubated with compound 17 (1 μM) for 3 h; and the cells were pre-incubated with a tumor-targeted biotin ligand at various concentrations (1 mM or 2 mM) for 1 h and then co-incubated with compound 17 for 3 h. After the culture medium was removed, the cells were washed with PBS, a fresh culture medium was used for replacement, and a fluorescence microscope was then used to take an image, which was used as the control.

[3] = system: Hela cells; test: Determination of mitochondrial membrane potential MMP (JC-10 dye); format: cell-based; details: 0-10 μM, 24 hours
Method: Cells were inoculated in a 384-well plate with a black transparent bottom and then cultured overnight in a cell incubator containing 5% CO2 at 37° C., and the cells were treated with prodrug 17 at a specified concentration for 24 hours. An MMP kit (JC-10 dye, MAK-160) was then used for treatment and measurement according to the test method as provided, wherein apoptotic/damaged cells were monitored using λex=490 nm and λem=525 nm, and normal cells were monitored using λex=540 nm and λem=590 nm.

[4] = system: Hela cells; test: Apoptosis detection (Annexin V-PE, flow cytometry); format: cell-based; details: various concentrations, 24 h
Method: Cells were inoculated in a 35 mm culture dish. After culture overnight at 37° C., the cells were treated with prodrug 17 at a specified concentration for 24 h. The cells were then collected, rinsed with PBS, resuspended in 500 μL of 1×buffer, and quantitatively measured by a flow cytometer according to a method given by the apoptosis kit Annexin V-PE.

[5] = Drug release and stability test of prodrug 17 in PBS solution with or without GSH (fluorescence, HPLC, ESI-MS); format: physicochemical
Method: Prodrug 17 (5 mM stock solution in DMSO) was diluted with PBS to form a solution at an indicated concentration and then incubated at 37° C. with a glutathione (GSH) solution at a specified concentration (0-12 mM GSH for concentration-dependent study and 10 mM GSH for time-dependent study), and the fluorescence of the treated sample was monitored periodically at specific time points. The change in the fluorescence intensity of the sample reflected the drug release behavior of prodrug 17 under GSH activation. In addition, a chromatogram was detected by high performance liquid chromatography after co-incubation of prodrug 17 (20 μM) with GSH (10 mM) in a PBS solution at 37° C. for 6 h, and a mass spectrum of the reaction solution was detected by ESI-MS.

[6] = system: HeLa tumor cells; test: Cytotoxicity test (MTT) on tumor cells; format: cell-based; details: various concentrations, 48 h
Method: (§1) Cells were inoculated in a 96-well plate and cultured overnight in a cell incubator containing 5% CO2 at 37° C. The cells were treated with prodrug 17 at various concentrations and cultured in a cell incubator containing 5% CO2 at 37° C. for 48 h. A commercial MTT assay kit was then used to measure the cell viability. The experiment was repeated three times, and the data were analyzed by GraphPad Prism 6.0 software.

[7] = system: normal CHO cells; test: Cytotoxicity test (MTT) on normal cells; format: cell-based; details: various concentrations, 48 h
Method: as §1

Compound: Ac-Arg-Arg-Arg-Arg-Arg-L-Nal-D-Nal-Gly-Gly-Lys [MTPS]
- co-localization coefficient with the commercial mitochondrial dye (MitoTracker Deep Red) [1]: 0.54

Compound: Ac-Arg-Arg-Arg-L-Nal-D-Nal-Gly-Gly-Lys [MTP3]
- co-localization coefficient with the commercial mitochondrial dye (MitoTracker Deep Red) [1]: 0.84
- co-localization coefficient with the commercial fluorescent probe after long co-incubation ([1]; after co-incubation with cells for up to 36 h): 0.70

Compound: COc1cccc2c1C(=O)c1c(O)c3c(c(O)c1C2=O)C[C@@](O)(C(=O)CO)C[C@@H]3O[C@H]1C[C@H](N)[C@H](O)[C@H](C)O1 [Dox, doxorubicin, reference compound]
- localization in the cells ([2]; 1 μM, fluorescence imaging): mainly located in the nucleus

Compound: COc1cccc2c1C(=O)c1c(O)c3c(c(O)c1C2=O)C[C@@](O)(C(=O)CO)C[C@@H]3O[C@H]1C[C@H](NC(=O)OCCSSCCOC(=O)NCCCC[C@H](NC(=O)CNC(=O)CNC(=O)[C@@H](Cc2ccc3ccccc3c2)NC(=O)[C@H](Cc2ccc3ccccc3c2)NC(=O)[C@H](CCCNC(=N)N)NC(=O)[C@H](CCCNC(=N)N)NC(=O)[C@H](CCCNC(=N)N)NC(=O)CCCC[C@@H]2SCC3NC(=O)NC32)C(N)=O)[C@H](O)[C@H](C)O1 (some centres unmarked) [prodrug 17] (X1-RRR[2Nal][d2Nal]GGK(X2)-NH2)
- mitochondrial membrane potential change [3]: remarkable reduction in mitochondrial membrane potential
- uptake by and release in HeLa cells ([2]; 1 μM, 1-5 h, fluorescence imaging): slowly taken up
- cell fluorescence after pre-incubation with the GSH inhibitor BSO ([2]; BSO 5 mM 24 h, then 1 μM for 3 h): almost no fluorescence
- localization in the cells ([2]; 1 μM, fluorescence imaging): mainly located in mitochondria
- induction of apoptosis [4]: induce cell death through cell apoptosis
- time at which fluorescence (drug release) reached the maximum value ([5]; 37° C., 10 mM GSH, PBS): about 8 hours
- stability in PBS solution ([5]; PBS solution at 37° C. for 7 days, HPLC): no obvious compound degradation
- GSH-responsive release detected by HPLC and ESI-MS ([5]; prodrug 20 μM, GSH 10 mM, PBS, 37° C., 6 h): released Dox and mitochondria-targeted peptide 16 could be clearly detected
- anti-tumor activity (cell viability of HeLa cells) [6]: strong anti-tumor activity
- toxicity to normal cells (CHO cells) [7]: almost no toxicity
- mitochondrial targeting (co-localization imaging) ([1]; 1 μM in HeLa cells): excellent mitochondrial targeting properties

Compound: Ac-Arg-Arg-Arg-Arg-L-Nal-D-Nal-Gly-Gly-Lys [MTP4]
- co-localization coefficient with the commercial mitochondrial dye (MitoTracker Deep Red) [1]: 0.68

Compound: Ac-Arg-Arg-L-Nal-D-Nal-Gly-Gly-Lys [MTP2]
- co-localization coefficient with the commercial mitochondrial dye (MitoTracker Deep Red) [1]: 0.65
